Read-outs that look alike come from different tables or passages of the source.
Tests used:
[1] = 500 mg diflunisal twice daily for 11 days; cited from earlier work
p300/CBP = conditions: literature (Shirakawa et al., 2016); cited from earlier work
Alzheimer's disease = experiment: Pharmacoepidemiologic cohort analysis (MarketScan Medicare Supplemental database), incidence of AD; type: in vivo, human
Source text: (§1) Because ac-tau has been generally reported in the brains of subjects with AD, we evaluated the relationship between salsalate or diflunisal use and incidence of clinically-diagnosed TBI or AD by analyzing 7.23 million U.S. commercially-insured individuals (MarketScan Medicare Supplemental database). We conducted two cohort analyses to evaluate the predicted association, based on individual level of longitudinal patient data and pharmacoepidemiologic methods, as previously established (Cheng et al., 2018). Thus, our two cohorts included: (1) salsalate vs. a matched aspirin population and (2) diflunisal vs. a matched aspirin population (Table 2). For each comparison, we estimated the un-stratified Kaplan-Meier curves and conducted propensity score (PS) stratified (n strata=10) log-rank tests and a Cox regression model after adjusting age, race, sex, and disease comorbidities (including diabetes, hypertension, and coronary artery disease) using a propensity score-matching method (Methods).
Study cohorts. The IBM® MarketScan® Medicare Supplemental Database is one of the first in the U.S. to profile the healthcare experience of retirees with Medicare supplemental insurance paid by employers. The MarketScan Medicare Supplemental Database provides detailed cost, use and outcomes data for healthcare services performed in both inpatient and outpatient settings. For most of the population, the medical claims are linked to outpatient prescription drug claims and person-level enrollment data through the use of unique patient or enrollee identifiers. […] This feature makes the database a robust tool for pharmacoeconomic and outcomes research and helps provide insight into the drug use and spending patterns of older Americans. In this study, the pharmacoepidemiology study utilized the MarketScan Medicare Claims database from 2012 to 2017. The dataset included individual-level diagnosis codes, procedure codes and pharmacy claim data for 7.23 million patients. Pharmacy prescriptions of salsalate, diflunisal, and aspirin were identified by using RxNorm and National Drug Code (NDC).
Outcome measurement. For a subject, a drug episode is defined as from drug initiation to drug discontinuation. Specifically, drug initiation is defined as the first day of drug supply (i.e. 1st prescription date). Drug discontinuation is defined as the last day of drug supply (i.e. last prescription date+days of supply) and without drug supply for the next 60 days. In another word, gaps of less than 60-day of drug supply were allowed within a drug episode. The drug cohort included the first drug episode for each subject. For the final cohorts, demographic variables including age, race, sex and geographical location were collected. […]

[2] = in vivo
Protocol: Diflunisal was administered PO and animals were euthanized at the indicated times post-dose. After peripheral blood collection, animals were perfused with 1×PBS to remove blood in the brain vasculature. Total plasma and brain levels of diflunisal were evaluated by LC-MS/MS and then converted to free drug levels after measurement of binding in mouse plasma and brain.
Diflunisal pharmacokinetics: Diflunisal levels in mouse plasma and brain were monitored by LC-MS/MS using an AB Sciex (Framingham, MA) 4000 QTRAP® mass spectrometer coupled to a Shimadzu (Columbia, MD) Prominence LC. Diflunisal was detected with the mass spectrometer in negative MRM (multiple reaction monitoring) mode by following the precursor to fragment ion transitions 248.9 to 204.9 (quantifier ion) and 248.9 to 184.9 (qualifier ion). An Agilent C18 XDB column (5 micron, 50×4.6 mm) was used for chromatography for PK studies with the following conditions: Buffer A: dH20+0.1% formic acid, Buffer B: acetonitrile+0.1% formic acid, 0-1.0 min 5% B, 1.0-1.5 min gradient to 100% B, 1.5-3.0 min 100% B, 3.0-3.2 min gradient to 5% B, 3.2-4.5 5% B. Tolbutamide (transition 269.1 to 169.9) from Sigma (St. Louis, MO) was used as an internal standard (IS). Pharmacokinetic studies were performed by injecting 8 week old C57BL/6J male mice with diflunisal formulated in 10% DMSO, 20% Kolliphor EL, 70% saline. 60 or 180 minutes post-dose, animals were anesthetized with ketamine (100 mg/kg) and xylazine (10 mg/kg) via intraperitoneal (IP) injection. Blood was collected using the anticoagulant ACD, and then brains were harvested after transcardial perfusion with 1×PBS. Tissues were weighed before snap freezing and blood spun at 9600×g to collect plasma which was stored frozen along with brain tissue at −80° C. until analysis. […] The concentration of drug in each time-point sample was quantified using Analyst software (Sciex). […] The limit of quantitation (LOQ) was defined as the lowest concentration at which back calculation yielded a concentration within 20% of theoretical.

[3] = Diflunisal protein binding by rapid equilibrium dialysis; type: in vitro ADME, mouse; conditions: diluted 1:20 (final) with PBS, 37° C.
Protocol: (§2) Diflunisal protein binding: Protein binding of diflunisal in mouse plasma or brain homogenate was determined by rapid equilibrium dialysis using RED chambers (Thermo Scientific, Waltham, MA). On the day of the RED experiment, frozen mouse plasma and 4× homogenized brain was thawed in a water bath at 37° C. Then it was equilibrated for 45 minutes at 37° C. in an atmosphere of 5% CO2. The pH of PBS was confirmed within 7.4±0.1. The pH of plasma and brain was measured and adjusted to 7.4±0.1 using concentrated acid or base. Plasma and brain diluted at 1:20 (final) with PBS and used for all subsequent steps. An aliquot of plasma or brain was spiked with compound to a compound concentration of 5 μM and vortex mixed. […] Donor, dialysate, and plasma or brain stability samples were analyzed by using a matrix matching approach whereby each sample was mixed in a 1:1 ratio with the opposite medium (blank matrix or PBS). […] Diflunisal levels in both chambers were measured by LC-MS/MS in comparison to a standard curve prepared in 1:1 matrix: PBS as described above. For each matrix, stability was assessed by maintaining individual aliquots of compound-spiked matrix at 37° C. and 5% CO2 for 0 and 6 hours. […] Stability of diflunisal in plasma and brain was 99% over 6 hours as assessed by LC-MS/MS. Fraction unbound (fu) was determined based on the following equations: […]

[4] = Diflunisal stability in plasma and brain homogenate; type: in vitro ADME; conditions: mouse plasma and brain homogenate, 37° C., 5% CO2, over 6 hours
Protocol: as §2

clinically-diagnosed TBI = experiment: Pharmacoepidemiologic cohort analysis (MarketScan Medicare Supplemental database), incidence of TBI; type: in vivo, human; conditions: vs. PS-matched aspirin cohort, Cox regression model, 6 years of follow-up
Source text: as §1
Study cohorts. The IBM® MarketScan® Medicare Supplemental Database is one of the first in the U.S. to profile the healthcare experience of retirees with Medicare supplemental insurance paid by employers. The MarketScan Medicare Supplemental Database provides detailed cost, use and outcomes data for healthcare services performed in both inpatient and outpatient settings. […]

O=C(O)c1cc(-c2ccc(F)cc2F)ccc1O [diflunisal]
mean peak plasma levels in humans [1]: 190 µg/mL
inhibition of p300/CBP (p300/CBP): demonstrated to inhibit p300/CBP
incidence of AD, subgroup analysis (Alzheimer's disease; excluding patients with type 2 diabetes, hypertension, or coronary artery disease, vs. aspirin): associated with decreased incidence of AD
hazard ratio [HR], AD (Alzheimer's disease; vs. PS-matched aspirin cohort, Cox regression model, 6 years of follow-up): 0.17
penetration into mouse brain [2]: modest penetration of diflunisal into mouse brain
free drug plasma to brain ratio ([2]; male, C57BL/6J, mouse): 55:1
total diflunisal plasma to brain ratio ([2]; male, C57BL/6J, mouse): about 200:1
fraction unbound at 6 h, 5 μM ([3]; pH 7.4, mouse brain homogenate, read-out: fraction unbound in brain tissue (fubrain)): 0.05 ± 0.001
fraction unbound at 6 h, 5 μM ([3]; pH 7.4, mouse plasma, read-out: fraction unbound in plasma (fuplasma)): 0.014 ± 0.002
stability in plasma and brain [4]: 99%
hazard ratio [HR], clinically-diagnosed TBI (clinically-diagnosed TBI): 0.61

Source: patent publication US20240201204A1, “Biomarker and Druggable Target of Neurodegeneration” (University Hospitals Cleveland Medical Center, priority 2020, published 2024)
